# According to ChEMBL document CHEMBL1157878, “Synthesis and antiproliferative properties of ibuprofen-oligo(3-hydroxybutyrate) conjugates” (Eur J Med Chem, 2010):
# Key:
# HT-29 = experiment: Cytotoxicity against human HT-29 cells after 72 hrs by MTT assay; format: functional, cell-based; conditions: HT-29, 72 h
# HCT-116 = experiment: Cytotoxicity against human HCT116 cells after 72 hrs by MTT assay; format: functional, cell-based; conditions: HCT-116, 72 h
SMILES,IC50 (HT-29) [µM],IC50 (HCT-116) [µM]
CC(C)Cc1ccc(C(C)C(=O)OC(C)CC(=O)OC(C)CC(=O)OC(C)CC(=O)OC(C)CC(=O)OC(C)CC(=O)OC(C)CC(=O)O)cc1 (stereo unspecified),77,53
CC(C)Cc1ccc(C(C)C(=O)OC(C)CC(=O)OC(C)CC(=O)OC(C)CC(=O)OC(C)CC(=O)O)cc1 (stereo unspecified),37,31
CC(C)Cc1ccc(C(C)C(=O)O)cc1 (stereo unspecified) [IBUPROFEN],552,448
